Source: PubChem BioAssay (NCI)
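In this assay, cells in 96-well plates receive the compound at five concentrations for 48 hours. Endpoints are linearly interpolated between the surrounding concentrations. Definition used: TGI = concentration required for complete inhibition of growth.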

Columns and labels:
Experiment in all cases: NCI anticancer screen, dose series, 48 h
UACC-257 melanoma = system: UACC-257 melanoma
MDA-N = system: MDA-N
OVCAR-3 ovarian = system: OVCAR-3 ovarian
HCT-15 colon = system: HCT-15 colon
OVCAR-8 ovarian = system: OVCAR-8 ovarian
SW-620 colon = system: SW-620 colon
HCT-116 colon = system: HCT-116 colon
MDA-MB-231 breast = system: MDA-MB-231 breast
CCRF-CEM leukemia = system: CCRF-CEM leukemia
DU-145 prostate = system: DU-145 prostate
UACC-62 melanoma = system: UACC-62 melanoma
COLO 205 colon = system: COLO 205 colon
NCI/ADR-RES ovarian = system: NCI/ADR-RES ovarian
A498 renal = system: A498 renal

Q: What does the source list for `COc1cccc2c1OC(c1ccc(C#N)cc1)C([N+](=O)[O-])=C2` (stereo not given)?
A: TGI (UACC-257 melanoma): 2.68 µM; TGI (MDA-N): 2.87 µM; TGI (OVCAR-3 ovarian): 4.6 µM; TGI (HCT-15 colon): 3.11 µM; TGI (OVCAR-8 ovarian): 5.28 µM; TGI (SW-620 colon): 2.8 µM; TGI (HCT-116 colon): 2.8 µM; TGI (MDA-MB-231 breast): 2.92 µM; TGI (CCRF-CEM leukemia): 4.51 µM; TGI (DU-145 prostate): 9.39 µM; TGI (UACC-62 melanoma): 3.33 µM; TGI (COLO 205 colon): 3.15 µM; TGI (NCI/ADR-RES ovarian): > 100 µM; TGI (A498 renal): 4.03 µM

Q: `CCCCC(Sc1cc(Cl)c(C)cc1S(=O)(=O)Nc1n[nH]c(N)n1)C(=O)OC` (stereo not given) was tested. Which TGI (UACC-257 melanoma) did it give?
A: > 10 µM

Q: What about the TGI (MDA-N) of the same molecule?
A: > 10 µM

Q: What about the TGI (OVCAR-3 ovarian) of the same molecule?
A: > 10 µM

Q: And the TGI (HCT-15 colon)?
A: > 10 µM

Q: What about the TGI (OVCAR-8 ovarian) of the same molecule?
A: > 10 µM

Q: What about the TGI (SW-620 colon) of the same molecule?
A: > 10 µM

Q: What about the TGI (HCT-116 colon) of the same molecule?
A: > 10 µM

Q: And the TGI (MDA-MB-231 breast)?
A: > 10 µM

Q: And the TGI (CCRF-CEM leukemia)?
A: > 10 µM

Q: What about the TGI (DU-145 prostate) of the same molecule?
A: > 10 µM

Q: And the TGI (UACC-62 melanoma)?
A: > 10 µM

Q: And the TGI (COLO 205 colon)?
A: > 10 µM

Q: What about the TGI (NCI/ADR-RES ovarian) of the same molecule?
A: > 10 µM

Q: What about the TGI (A498 renal) of the same molecule?
A: > 10 µM

Q: `COC(CC1(/C=C/O[Si](C(C)C)(C(C)C)C(C)C)C(=O)N(C)c2ccccc21)OC` (stereo not given) was tested. Which TGI (UACC-257 melanoma) did it give?
A: > 100 µM

Q: And the TGI (MDA-N)?
A: > 100 µM

Q: And the TGI (OVCAR-3 ovarian)?
A: > 100 µM

Q: What about the TGI (HCT-15 colon) of the same molecule?
A: > 100 µM

Q: What about the TGI (OVCAR-8 ovarian) of the same molecule?
A: > 100 µM

Q: What about the TGI (SW-620 colon) of the same molecule?
A: > 100 µM

Q: What about the TGI (HCT-116 colon) of the same molecule?
A: > 100 µM

Q: What about the TGI (MDA-MB-231 breast) of the same molecule?
A: > 100 µM

Q: What about the TGI (CCRF-CEM leukemia) of the same molecule?
A: > 100 µM

Q: And the TGI (DU-145 prostate)?
A: > 100 µM

Q: What about the TGI (UACC-62 melanoma) of the same molecule?
A: > 100 µM

Q: And the TGI (COLO 205 colon)?
A: > 100 µM

Q: And the TGI (NCI/ADR-RES ovarian)?
A: 78.4 µM

Q: And the TGI (A498 renal)?
A: > 100 µM

Q: Which results are given for `COCCCNC(=O)C1=C(C)NC(C)=C(C(=O)NCCCOC)C1`?
A: TGI (UACC-257 melanoma): > 100 µM; TGI (MDA-N): > 100 µM; TGI (OVCAR-3 ovarian): > 100 µM; TGI (OVCAR-8 ovarian): > 100 µM; TGI (SW-620 colon): > 100 µM; TGI (HCT-116 colon): > 100 µM; TGI (MDA-MB-231 breast): > 100 µM; TGI (CCRF-CEM leukemia): > 100 µM; TGI (DU-145 prostate): > 100 µM; TGI (UACC-62 melanoma): > 100 µM; TGI (COLO 205 colon): > 100 µM; TGI (NCI/ADR-RES ovarian): > 100 µM; TGI (A498 renal): > 100 µM

Q: For `Cc1ccc(Nc2c(C#N)[n+]([O-])c3cc(Cl)ccc3[n+]2[O-])cc1`, which TGI (UACC-257 melanoma) is on record?
A: > 100 µM

Q: And the TGI (MDA-N)?
A: > 100 µM

Q: What about the TGI (OVCAR-3 ovarian) of the same molecule?
A: > 42.4 µM

Q: And the TGI (HCT-15 colon)?
A: > 100 µM

Q: What about the TGI (OVCAR-8 ovarian) of the same molecule?
A: > 100 µM

Q: And the TGI (SW-620 colon)?
A: > 100 µM

Q: What about the TGI (HCT-116 colon) of the same molecule?
A: > 100 µM

Q: What about the TGI (MDA-MB-231 breast) of the same molecule?
A: > 100 µM

Q: What about the TGI (CCRF-CEM leukemia) of the same molecule?
A: > 100 µM

Q: What about the TGI (DU-145 prostate) of the same molecule?
A: > 100 µM

Q: What about the TGI (UACC-62 melanoma) of the same molecule?
A: > 100 µM

Q: What about the TGI (COLO 205 colon) of the same molecule?
A: > 100 µM

Q: And the TGI (NCI/ADR-RES ovarian)?
A: > 100 µM

Q: What about the TGI (A498 renal) of the same molecule?
A: > 100 µM

Q: How did the TGI (UACC-257 melanoma) turn out when `CC(SC(=S)N1CCOCC1)C(=O)Nc1nnc(-c2ccccc2)o1` (stereo not given) was run?
A: > 100 µM

Q: What about the TGI (MDA-N) of the same molecule?
A: > 100 µM

Q: And the TGI (OVCAR-3 ovarian)?
A: > 100 µM

Q: What about the TGI (HCT-15 colon) of the same molecule?
A: > 100 µM

Q: And the TGI (OVCAR-8 ovarian)?
A: > 100 µM

Q: And the TGI (SW-620 colon)?
A: > 100 µM

Q: And the TGI (HCT-116 colon)?
A: > 100 µM

Q: And the TGI (MDA-MB-231 breast)?
A: > 100 µM

Q: And the TGI (CCRF-CEM leukemia)?
A: 18.3 µM

Q: And the TGI (DU-145 prostate)?
A: > 100 µM

Q: What about the TGI (COLO 205 colon) of the same molecule?
A: > 100 µM

Q: What about the TGI (NCI/ADR-RES ovarian) of the same molecule?
A: 96.4 µM

Q: And the TGI (A498 renal)?
A: > 100 µM

Q: What does the source list for `CN(C)S(=O)(=O)/N=C/c1cccc(/C=N/S(=O)(=O)N(C)C)c1`?
A: TGI (UACC-257 melanoma): > 100 µM; TGI (MDA-N): > 100 µM; TGI (OVCAR-3 ovarian): > 100 µM; TGI (HCT-15 colon): > 100 µM; TGI (OVCAR-8 ovarian): > 100 µM; TGI (SW-620 colon): > 100 µM; TGI (HCT-116 colon): > 100 µM; TGI (MDA-MB-231 breast): > 100 µM; TGI (CCRF-CEM leukemia): > 100 µM; TGI (DU-145 prostate): > 100 µM; TGI (UACC-62 melanoma): > 100 µM; TGI (COLO 205 colon): > 100 µM; TGI (NCI/ADR-RES ovarian): > 100 µM; TGI (A498 renal): > 100 µM

Q: What does the source list for `CCOC(=O)[C@@]12C[C@](/C=C/OC)(O[Si](C)(C)C)[C@@]13c1cc(OC)c(OC)cc1CCN3C(=O)C2O` (stereo not given in full)?
A: TGI (UACC-257 melanoma): > 100 µM; TGI (MDA-N): > 100 µM; TGI (OVCAR-3 ovarian): > 100 µM; TGI (HCT-15 colon): > 100 µM; TGI (OVCAR-8 ovarian): > 100 µM; TGI (SW-620 colon): > 100 µM; TGI (HCT-116 colon): > 100 µM; TGI (MDA-MB-231 breast): > 100 µM; TGI (CCRF-CEM leukemia): > 100 µM; TGI (DU-145 prostate): > 100 µM; TGI (UACC-62 melanoma): > 100 µM; TGI (COLO 205 colon): > 100 µM; TGI (NCI/ADR-RES ovarian): > 100 µM; TGI (A498 renal): > 100 µM
